Measured values taken from patent US20050215646A1, “Methods for treating multiple sclerosis and pharmaceutical compositions therefor” (Renovis, Inc., priority 2004, published 2005).

Columns and labels:
[1] = target: T1, CXCR1 (Homo sapiens, UniProt P25024); assay: Migration of CHO-K1 cells expressing CXCR1; assay type: cell-based; settings: CHO-K1 cells expressing CXCR1, 2 hours; degree similar to IL-8; FIG. 3
T1 construct: cDNA fragments encompassing chemokine receptor coding regions; expressed in transfected cells; host or cells: CHO-K1 (ATCC CCL-61), transient transfection
T1 sequence (P25024 1-350): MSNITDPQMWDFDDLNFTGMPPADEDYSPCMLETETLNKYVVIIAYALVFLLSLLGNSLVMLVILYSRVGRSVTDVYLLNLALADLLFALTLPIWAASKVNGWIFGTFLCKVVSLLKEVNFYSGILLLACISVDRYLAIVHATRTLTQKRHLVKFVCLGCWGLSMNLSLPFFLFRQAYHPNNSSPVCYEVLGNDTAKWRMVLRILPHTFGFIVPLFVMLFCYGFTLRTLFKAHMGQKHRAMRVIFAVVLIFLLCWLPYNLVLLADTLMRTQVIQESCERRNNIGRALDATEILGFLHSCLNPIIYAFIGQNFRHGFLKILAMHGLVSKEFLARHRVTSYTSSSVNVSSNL
Experimental: (§1) CHO-K1 cells were obtained from American Type Culture Collection (CCL-61) and cultured in Ham's F12 media supplemented with 10% heat inactivated FBS and 100 μg/ml penicillin/streptomycin. cDNA fragments encompassing chemokine receptor coding regions were obtained from cDNAs synthesized from HL-60 cells and/or human peripheral blood mononuclear cells by the polymerase chain reaction. Expression constructs of chemokine receptors were generated by cloning PCR fragments into expression vector pEF6/V5-TOPO (K9610-20, Invitrogen). Transient transfections were carried out with Fugene 6 transfection reagent (1814443, Roche Applied Science) according to the manufacturer's instructions.
(§2) The CHO-chemokine receptor cells were used in migration assays 36 hours following transfection. In vitro migration assays were performed using a Neuroprobe Blindwell migration apparatus (AA12, Neuro Probe, Inc./16008 Industrial Drive, Gaithersburg, Md. 20877) according to the manufacturer's instructions with slight modifications. […]
(§3) Following the migration assays, migrated cells that had adhered to the underside of the filter were quantitated according to the manufacturer's instructions. […] Stained filtered were mounted onto microscope slides and migrated cells in each well were manually counted under 40× magnification.

[2] = target: T2, CXCR2 (Homo sapiens, UniProt P25025); assay: Migration of CHO-K1 cells expressing CXCR2; assay type: cell-based; settings: CHO-K1 cells expressing CXCR2, 2 hours; FIG. 3
T2 construct: cDNA fragments encompassing chemokine receptor coding regions; expressed in transfected cells; host or cells: CHO-K1 (ATCC CCL-61), transient transfection
T2 sequence (P25025 1-360): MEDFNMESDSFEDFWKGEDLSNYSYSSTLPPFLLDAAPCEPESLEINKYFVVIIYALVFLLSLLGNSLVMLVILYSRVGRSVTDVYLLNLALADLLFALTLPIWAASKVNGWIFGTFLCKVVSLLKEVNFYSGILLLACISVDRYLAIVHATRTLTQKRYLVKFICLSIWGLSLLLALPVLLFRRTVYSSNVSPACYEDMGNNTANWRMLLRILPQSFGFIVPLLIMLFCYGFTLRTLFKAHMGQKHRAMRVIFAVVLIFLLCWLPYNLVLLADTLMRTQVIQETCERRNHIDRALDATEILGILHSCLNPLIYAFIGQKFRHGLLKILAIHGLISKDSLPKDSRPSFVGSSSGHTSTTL
Experimental: as §1, §2, §3

[3] = target: T3, CX3CR1 (Homo sapiens, UniProt P49238); assay: Migration of CHO-K1 cells expressing CX3CR1; assay type: cell-based; settings: CHO-K1 cells expressing CX3CR1, 2 hours; FIG. 3
T3 construct: cDNA fragments encompassing chemokine receptor coding regions; expressed in transfected cells; host or cells: CHO-K1 (ATCC CCL-61), transient transfection
T3 sequence (P49238 1-355): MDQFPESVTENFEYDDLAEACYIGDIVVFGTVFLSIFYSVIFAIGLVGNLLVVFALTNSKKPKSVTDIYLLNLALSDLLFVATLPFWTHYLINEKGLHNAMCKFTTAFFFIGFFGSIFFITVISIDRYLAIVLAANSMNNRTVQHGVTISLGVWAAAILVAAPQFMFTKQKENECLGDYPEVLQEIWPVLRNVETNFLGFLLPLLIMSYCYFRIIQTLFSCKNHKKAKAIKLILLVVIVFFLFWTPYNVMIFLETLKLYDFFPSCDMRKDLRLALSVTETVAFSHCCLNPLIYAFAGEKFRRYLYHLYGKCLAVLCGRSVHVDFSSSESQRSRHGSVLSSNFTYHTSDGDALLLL
Experimental: as §1, §2, §3

[4] = target: T4, FMLP receptor (Homo sapiens, UniProt P21462); assay: Migration of CHO-K1 cells expressing the FMLP receptor; assay type: cell-based; settings: 2 hours, FIG. 4
T4 construct: cDNA fragments encompassing chemokine receptor coding regions; expressed in transfected cells; host or cells: CHO-K1 (ATCC CCL-61), transient transfection
T4 sequence (P21462 1-350): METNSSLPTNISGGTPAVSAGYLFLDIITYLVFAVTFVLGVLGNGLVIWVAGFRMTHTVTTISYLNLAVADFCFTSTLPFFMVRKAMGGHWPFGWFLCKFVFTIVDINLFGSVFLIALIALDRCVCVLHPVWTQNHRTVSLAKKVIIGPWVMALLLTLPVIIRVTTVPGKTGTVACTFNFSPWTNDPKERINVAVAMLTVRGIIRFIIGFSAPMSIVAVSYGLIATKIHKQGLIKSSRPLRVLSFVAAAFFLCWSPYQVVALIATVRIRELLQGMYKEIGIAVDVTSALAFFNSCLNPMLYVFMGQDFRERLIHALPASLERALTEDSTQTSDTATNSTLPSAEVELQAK
Experimental: as §1, §2, §3

[5] = tested on: C57BL/6J mice model of EAE; assay: C57BL/6J mice model of experimental autoimmune encephalomyelitis (EAE), prevention paradigm; assay type: in vivo, mouse

induction of cell migration [1]: induced migration
induction of cell migration [2]: induced migration
induction of cell migration [3]: induced migration
induction of cell migration [4]: did not induce migration
SMILES: CC(C)(C)c1cc(/C=[N+](\[O-])C(C)(C)C)cc(C(C)(C)C)c1O [Compound 1, α-(4-hydroxy-3,5-di-tert-butylphenyl)-N-tert-butylnitrone]
reversal of EAE-associated weight loss ([5]; 10 mg/kg oral once a day, FIG. 10): significant effect on reversal
tissue infiltration score (spinal cord, H&E) ([5]; 10 mg/kg vs Vehicle, Day 26, failing to reach statistical significance (p=0.0513), FIG. 11): lower infiltration score than control mice
maximum disease score ([5]; oral gavage once a day from 7 days before induction, Days 9-26, FIG. 8): significant effect
cumulative disease score ([5]; oral gavage once a day from 7 days before induction, Days 9-26, FIG. 9): significant effect
disease severity (average clinical scores) ([5]; oral gavage once a day, 0.3, 1, 3, 10 mg/kg from 7 days before induction, vs Vehicle, FIG. 7): significant reduction
